Laboratory results from patent US12629352B2, “Methods and uses for apelin receptor agonists” (RESEARCH TRIANGLE INSTITUTE, priority 2019, dated 2026).

Tested on: bleomycin-induced pulmonary fibrosis in male C57BL/6 mice
Experiment: 21-day bleomycin-induced lung fibrosis model, prophylactic BID oral treatment
Format: in vivo
Settings: for Ashcroft score index: FIG. 15A, BID treatment; for absolute lung weights vs vehicle / absolute lung weights: day 21 post-bleomycin; for absolute lung weights: ±SEM, significantly lower than vehicle (p<0.05)
Procedure: Bleomycin is widely used to induce pulmonary fibrosis in rodents in order to study potential novel therapies for fibrosis. This study was designed to evaluate the prophylactic efficacy of test compound, Compound 1, also referred to as SRRM-423, in a 21-day model of bleomycin-induced pulmonary fibrosis in male C57BL/6 mice.
Prophylactic treatment of three different doses of 30 mg/kg, 15 mg/kg, and 7.5 mg/kg of Compound 1 was commenced a day before induction of disease and continued until the end of the study, namely 21 days after bleomycin administration. Treatment was administered twice daily via oral gavage.
Mice were administered bleomycin (Catalog number C-61703-323-22, lot number D011495AA, Hospira) via oropharyngeal route to induce lung fibrosis.
Bleomycin-induced animals were treated twice daily with either of the three different doses of test compound Compound 1 or pirfenidone starting from a day prior to disease induction and continued till study termination. Study animals were harvested on day 21 post-bleomycin administration. As an end point analysis, fibrosis symptoms such as body weight, absolute lung weight, lung weight normalized to body weight, and total leukocytes in BAL fluid were evaluated and compared with vehicle-treated mice.
On day 0, all mice in groups 2-6 received a 1.5 U/kg oropharyngeal administration of bleomycin to induce pulmonary fibrosis. Animals in group 1 were not administered bleomycin, but instead received a single dose of normal saline via the oropharyngeal route, and were considered sham control mice.
Dosing was initiated one day prior to induction of disease. Animals were dosed twice daily orally with Compound 1 and Pirfenidone and treatment was continued until 21 days after bleomycin administration. Animals from group 2 were treated with vehicle (0.5% methylcellulose). Animals in groups 3, 4 and 5 received Compound 1 at 30, 15, and 7.5 mg/kg respectively, and animals in group 6 received Pirfenidone 100 mg/kg.
Surviving animals were euthanized 21 days post bleomycin administration. Animals were weighed, then blood and lungs were collected. Blood was processed for plasma. Lungs, were weighed, flushed with HBSS for BAL collection, and fixed in 10% NBF. Supernatant from BAL fluid was frozen while the pellet was used for total leukocyte cell count.
In order to induce pulmonary fibrosis, mice in groups 2-6 were administered 1.5 U/kg bleomycin (Catalog number C-61703-323-22, lot number D011495AA, Hospira) in 70 μl via oropharyngeal administration. Animals from group 1 were administered 70 μl of saline by the oropharyngeal route, instead of bleomycin, and served as sham controls.
Compound 1 was provided as a trifluoroacetic acid (TFA) salt and requires a salt correction of 1.0654. All dose amounts were calculated as the free base content of the test article using the correction factor. Vehicle used for formulation of test compound, Compound 1, was 0.3% Tween 80 and 1% N-methylpyrollidinone in 0.5% aqueous methylcellulose. Vehicle and dosing formulation of Compound 1 was prepared fresh weekly. Dosing formulations and vehicles were stored at 4±2° C. protected from heat and light. The expiration date for the test article dosing solutions were set at 7 days after preparation. Pirfenidone was sourced from a vendor and formulated in the same vehicle as Compound 1, i.e., 0.3% Tween 80 and 1% N-methylpyrollidinone in 0.5% aqueous methylcellulose.
Animals were dosed twice daily with volume of 100 μl/dose by oral gavage from a day prior to disease induction and same treatment was continued till study termination, i.e., day 21 post bleomycin administration. Surviving animals were harvested within 2 to 4 hours post final dosing on day 21.
The lungs from each animal were harvested following Aragen's Standard Operating Procedure (WA-004-01). Each lung was dissected from the animal and weighed. The BAL fluid was collected by lavaging the lung twice with 0.5 ml Hanks Balanced Salt Solution (HBSS, VWR Radnor, PA). […]

[1] = lung histopathology, dose not specified

Structure (SMILES) | Ashcroft score index [1] | absolute lung weights vs vehicle (group 6, 100 mg/kg BID oral gavage) | fibrosis according to Ashcroft scores (30 mg/kg BID, compared to induced controls and to 100 mg/kg Pirfenidone) | fibrosis according to Ashcroft scores (15 or 7.5 mg/kg BID, compared to induced controls, similar to 100 mg/kg Pirfenidone BID) | average total leukocyte count in BAL fluid (30, 15 and 7.5 mg/kg BID, day 21, vs vehicle group 2, statistical significance not reached) | α-SMA positive lung tissue as a percent of the total lung parenchyma (>7.5 mg/kg, FIG. 15B, compared to induced controls, no clear relationship to the dose) | Ashcroft score of lung section (Masson's trichome staining) (FIG. 16, 30 mg mpk + bleomycin, bleomycin/no treatment similar to score 5) | α-SMA positive staining of lung section (FIG. 17, 30 mpk + bleomycin, compared to induced controls) | absolute lung weights (group 3, 30 mg/kg BID oral gavage) | absolute lung weights vs vehicle (group 4, 15 mg/kg BID oral gavage) | body weight (group 4, 15 mg/kg BID, recorded three times a week to day 21) | absolute lung weights (group 5, 7.5 mg/kg BID oral gavage) | fibrosis symptoms (body weight, lung weight, lung weight index, total leukocyte counts, myofibroblast proliferation) (highest dose of 30 mg/kg BID) | proliferation of activated myofibroblasts (antibody to α-SMA) [1] | absolute and normalized lung weights (prophylactic BID treatment, doses not distinguished)
Cc1ccc(=O)n(-c2ccccc2)c1 [Pirfenidone, reference compound] | reduced Ashcroft score index | Statistical significance was not reached | – | – | – | – | – | – | – | – | – | – | – | – | –
O=C(O)C[C@H](CCN1CCCC(F)(F)C1)NC(=O)c1cc(-c2ccccc2C(F)(F)F)n(C2CCCC2)n1 [Compound 1, (3S)-3-({1-cyclopentyl-5-[2-(trifluoromethyl)phenyl]-1H-pyrazol-3-yl}formamido)-5-(3,3-difluoropiperidin-1-yl)pentanoic acid] | reduced Ashcroft score index | – | greatest reduction in fibrosis | substantially less fibrosis | reduced the average leukocyte count in BAL fluid in all test groups | substantially less α-SMA positive lung tissue | ~2 | substantially less compared to induced controls | 310 mg | Statistical significance was not reached | lost more weight compared to other groups | 313 mg | significantly ameliorated fibrosis symptoms | reduced proliferation of activated myofibroblasts | reduced absolute and normalized lung weights
